Experimental data from ChEMBL document CHEMBL4266035, “Insulin Mimetic Activity of 3,4- Seco and Hexanordammarane Triterpenoids Isolated from Gynostemma longipes” (J Nat Prod, 2018).
The source made the active and inactive calls. No cut-off for these calls is given here.

Key:
C2C12 [1] = experiment: Cytotoxicity against mouse C2C12 cells at 40 uM after 24 hrs by MTT assay; type: cell-based; conditions: c2c12, 24 h
3T3-L1 [2] = experiment: Cytotoxicity against mouse 3T3L1 cells at 40 uM after 24 hrs by MTT assay; type: cell-based; conditions: 3t3-l1, 24 h
C2C12 [3] = experiment: Induction of AMPKalpha phosphorylation at Thr-172 residue in mouse C2C12 cells at 20 uM after 1 hr by Western blot analysis; type: cell-based
3T3-L1 [4] = experiment: Induction of 2-NBDG uptake in differentiated mouse 3T3L1 cells at 20 uM after 1 hr by fluorescence microscopic method; type: functional, cell-based
Mus musculus = organism: Mus musculus; experiment: Activation of AMPK signaling pathway in mouse 3T3L1 cells assessed as induction of GLUT4 translocation at 20 uM after 24 hrs by Western blot analysis; type: cell-based
C2C12 [5] = experiment: Activation of AMPKalpha in mouse C2C12 cells assessed as upregulation of ACC-phosphorylation at 20 uM after 1 hr by Western blot analysis; type: cell-based
3T3-L1 [6] = experiment: Induction of 2-NBDG uptake in differentiated mouse 3T3L1 cells after 1 hr by fluorescence microscopic method; type: functional, cell-based
3T3-L1 [7] = experiment: Induction of 2-NBDG uptake in differentiated mouse 3T3L1 cells at 10 uM after 1 hr by fluorescence microscopic method; type: functional, cell-based
C2C12 [8] = experiment: Induction of AMPKalpha phosphorylation at Thr-172 residue in mouse C2C12 cells at 10 uM after 1 hr by Western blot analysis; type: cell-based
3T3-L1 [9] = experiment: Cytotoxicity against mouse 3T3L1 cells at 10 to 30 uM after 24 hrs by MTT assay; type: cell-based; conditions: 3t3-l1, 24 h
C2C12 [10] = experiment: Cytotoxicity against mouse C2C12 cells at 10 uM after 24 hrs by MTT assay; type: cell-based; conditions: c2c12, 24 h

Compound | Activity (C2C12 [1]) | Activity (3T3-L1 [2]) | Activity (C2C12 [3]) | Activity (3T3-L1 [4]) | Activity (Mus musculus) | Activity (C2C12 [5]) | Activity (3T3-L1 [6]) | Activity (3T3-L1 [7]) | Activity (C2C12 [8]) | Activity (3T3-L1 [9]) | Activity (C2C12 [10])
CC(=O)[C@H]1CC[C@]2(C)[C@@H]1C(=O)C[C@@H]1[C@@]3(C)CC[C@H](O[C@@H]4O[C@H](CO[C@@H]5O[C@@H](C)[C@H](O)[C@@H](O)[C@H]5O)[C@H](O)[C@H](O[C@@H]5O[C@@H](C)[C@H](O)[C@@H](O)[C@H]5O)[C@H]4O[C@@H]4O[C@@H](C)[C@H](O)[C@@H](O)[C@H]4O)C(C)(C)[C@@H]3CC[C@]12C | Non-Toxic | Non-Toxic | Active | Active |  |  |  |  |  |  | 
CC(C)=CC(=O)C[C@](C)(O)[C@H]1CC[C@]2(C)[C@@H]1C(=O)C[C@@H]1[C@@](C)(CCC(=O)O)[C@@H](C(C)(C)O)CC[C@]12C | Non-Toxic | Non-Toxic | Active |  | Active | Active | Dose-dependent effect |  |  |  | 
C[C@@H]1O[C@@H](O[C@H]2[C@H](O[C@H]3CC[C@]4(C)[C@H]5CC(=O)[C@@H]6[C@@H]([C@@](C)(O)C/C=C/C(C)(C)O)CC[C@@]6(C)[C@]5(C)CC[C@H]4C3(C)C)O[C@H](CO)[C@H](O)[C@@H]2O[C@@H]2O[C@@H](C)[C@H](O)[C@@H](O)[C@H]2O)[C@H](O)[C@H](O)[C@H]1O | Non-Toxic | Non-Toxic | Active |  | Active |  | Dose-dependent effect |  |  |  | 
CC(C)=CC(=O)/C=C(/C)[C@H]1CC[C@]2(C)[C@@H]1C(=O)C[C@@H]1[C@@]3(C)CC[C@H](O[C@@H]4O[C@H](CO[C@@H]5O[C@@H](C)[C@H](O)[C@@H](O)[C@H]5O)[C@H](O)[C@H](O[C@@H]5O[C@@H](C)[C@H](O)[C@@H](O)[C@H]5O)[C@H]4O[C@@H]4O[C@@H](C)[C@H](O)[C@@H](O)[C@H]4O)C(C)(C)[C@@H]3CC[C@]12C | Non-Toxic | Non-Toxic | inactive | Active |  |  |  |  |  |  | 
C[C@@H]1O[C@@H](OC[C@H]2O[C@@H](O[C@H]3CC[C@]4(C)[C@H]5CC(=O)[C@@H]6[C@@H]([C@@](C)(O)CC(=O)CC(C)(C)O)CC[C@@]6(C)[C@]5(C)CC[C@H]4C3(C)C)[C@H](O[C@@H]3O[C@@H](C)[C@H](O)[C@@H](O)[C@H]3O)[C@@H](O[C@@H]3O[C@@H](C)[C@H](O)[C@@H](O)[C@H]3O)[C@H]2O)[C@H](O)[C@H](O)[C@H]1O | Non-Toxic | Non-Toxic | inactive | Active |  |  |  |  |  |  | 
CC(=O)[C@H]1CC[C@]2(C)[C@@H]1C(=O)C[C@@H]1[C@@]3(C)CC[C@H](O[C@@H]4O[C@H](CO)[C@H](O)[C@H](O[C@@H]5O[C@@H](C)[C@H](O)[C@@H](O)[C@H]5O)[C@H]4O[C@@H]4O[C@@H](C)[C@H](O)[C@@H](O)[C@H]4O)C(C)(C)[C@@H]3CC[C@]12C | Non-Toxic | Non-Toxic | Active |  | Active | Active | Dose-dependent effect |  |  |  | 
CC(C)=CCC[C@](C)(O)[C@H]1CC[C@]2(C)[C@@H]1C(=O)C[C@@H]1[C@@]3(C)CC[C@H](O[C@@H]4O[C@H](CO)[C@@H](O)[C@H](O)[C@H]4O[C@@H]4O[C@@H](C)[C@H](O)[C@@H](O)[C@H]4O)C(C)(C)[C@@H]3CC[C@]12C | Toxic | Toxic |  |  |  |  |  | Active | Active | Non-Toxic | Non-Toxic
CC(=O)[C@H]1CC[C@]2(C)[C@@H]1C(=O)C[C@@H]1[C@@](C)(CCC(=O)O)[C@@H](C(C)(C)O)CC[C@]12C | Non-Toxic | Non-Toxic | Active | Active |  |  |  |  |  |  | 
CC(C)(O)CC(=O)C[C@](C)(O)[C@H]1CC[C@]2(C)[C@@H]1C(=O)C[C@@H]1[C@@](C)(CCC(=O)O)[C@@H](C(C)(C)O)CC[C@]12C | Non-Toxic | Non-Toxic | Active |  | Active | Active | Dose-dependent effect |  |  |  | 
C[C@@H]1O[C@@H](OC[C@H]2O[C@@H](O[C@H]3CC[C@]4(C)[C@H]5CC(=O)[C@@H]6[C@@H]([C@@](C)(O)C/C=C/C(C)(C)O)CC[C@@]6(C)[C@]5(C)CC[C@H]4C3(C)C)[C@H](O[C@@H]3O[C@@H](C)[C@H](O)[C@@H](O)[C@H]3O)[C@@H](O[C@@H]3O[C@@H](C)[C@H](O)[C@@H](O)[C@H]3O)[C@H]2O)[C@H](O)[C@H](O)[C@H]1O | Non-Toxic | Non-Toxic | inactive | Active |  |  |  |  |  |  | 
